According to patent US4550159A, “Anthracycline compounds” (Microbial Chemistry Research Foundation, priority 1982, dated 1985):
Values after ≈ are worked out from the molar mass of the structure shown.

Legend:
L1210 leukemia cells = experiment: Antitumor activity, increase of life span, L1210 leukemia cells in CDF1 mice; assay type: in vivo; details: intraperitoneal, 10 days
Description: To CDF1 mice were intraperitoneally transplanted 1×10^5 L1210 leukemia cells/mouse as a suspension. After the transplantation, each 0.25 ml of a solution containing the test compound was intraperitoneally injected for 10 days, beginning on the day of transplantation. […] The increase of life span (%) compared with the control group consisting of mice administered with physiological saline solution instead of the test compound was calculated from the following equation: [formula]

B. cereus ATCC 10702 = experiment: Antimicrobial activity, MIC by agar dilution method; assay type: cell-based; details: Bacillus cereus, ATCC10702; B. cereus ATCC 10702, agar dilution method
Description: (§1) The antimicrobial activity of ditrisarubicin according to the present invention was examined. It is expressed as minimum inhibitory concentration (MIC) determined by the agar dilution method.

B. subtilis PCI 219 = experiment: as above; assay type: cell-based; details: Bacillus subtilis, PCI219; B. subtilis PCI 219, agar dilution method
Description: as §1

Coryn. bovis 1810 = experiment: as above; assay type: cell-based; details: Corynebacterium bovis; Coryn. bovis 1810, agar dilution method
Description: as §1

E. coli NIHJ = experiment: as above; assay type: cell-based; details: Escherichia coli
Description: as §1

K. pnuemoniae PCI 602 = experiment: as above; assay type: cell-based; details: K. pnuemoniae PCI 602, agar dilution method
Description: as §1

[1] = tested on: M. lysodeikticus IFO 3333; experiment: as above; assay type: cell-based; details: Micrococcus luteus, IFO3333; M. lysodeikticus IFO 3333, agar dilution method
Description: as §1

Prot. vulgaris OX19 = experiment: as above; assay type: cell-based; details: Proteus vulgaris
Description: as §1

Pseu. aeruginosa A3 = experiment: as above; assay type: cell-based; details: Pseudomonas aeruginosa
Description: as §1

S. aureus 209 P = experiment: as above; assay type: cell-based; details: Staphylococcus aureus
Description: as §1

S. aureus MS8710 = experiment: as above; assay type: cell-based; details: Staphylococcus aureus
Description: as §1

S. aureus MS9610 = experiment: as above; assay type: cell-based; details: Staphylococcus aureus
Description: as §1

S. aureus Smith = experiment: as above; assay type: cell-based; details: Staphylococcus aureus
Description: as §1

Sal. typhi T-63 = experiment: as above; assay type: cell-based; details: Salmonella enterica; Sal. typhi T-63, agar dilution method
Description: as §1

Serr. marcessens = experiment: as above; assay type: cell-based
Description: as §1

L1210 cells [2] = experiment: Cytotoxicity, growth of L1210 cells; assay type: cell-based; details: Mus musculus, read-out: ID50, growth
Description: (§2) The results are shown below.

L1210 cells [3] = experiment: Cytotoxicity, DNA synthesis in L1210 cells; assay type: cell-based; details: Mus musculus, read-out: ID50, DNA synthesis
Description: as §2

L1210 cells [4] = experiment: Cytotoxicity, RNA synthesis in L1210 cells; assay type: cell-based; details: Mus musculus, read-out: ID50, RNA synthesis
Description: as §2

L1210 cells [5] = experiment: Cytotoxicity, protein synthesis in L1210 cells; assay type: cell-based; details: Mus musculus; for IC50: read-out: ID50, protein synthesis
Description: as §2

Solubility = assay type: physicochemical

Structure (SMILES)	Increase of life span (L1210 leukemia cells; 0.016 mg/kg/day) [%]	Increase of life span (L1210 leukemia cells; 0.031 mg/kg/day) [%]	Increase of life span (L1210 leukemia cells; 0.063 mg/kg/day) [%]	Increase of life span (L1210 leukemia cells; 0.125 mg/kg/day) [%]	Increase of life span (L1210 leukemia cells; 0.25 mg/kg/day) [%]	MIC (B. cereus ATCC 10702) [µg/mL]	MIC (B. subtilis PCI 219) [µg/mL]	MIC (Coryn. bovis 1810) [µg/mL]	MIC (E. coli NIHJ) [µg/mL]	MIC (K. pnuemoniae PCI 602) [µg/mL]	MIC [1] [µg/mL]	MIC (Prot. vulgaris OX19) [µg/mL]	MIC (Pseu. aeruginosa A3) [µg/mL]	MIC (S. aureus 209 P) [µg/mL]	MIC (S. aureus MS8710) [µg/mL]	MIC (S. aureus MS9610) [µg/mL]	MIC (S. aureus Smith) [µg/mL]	MIC (Sal. typhi T-63) [µg/mL]	MIC (Serr. marcessens) [µg/mL]	IC50 (L1210 cells [2]) [µg/mL]	other results
CCC1(O)CC(OC2CC(N(C)C)C(OC3CC4OC5CC(=O)C(C)OC5OC4C(C)O3)C(C)O2)c2c(O)c3c(c(O)c2C1OC1CC(N(C)C)C(OC2CC(O)C(OC4CCC(=O)C(C)O4)C(C)O2)C(C)O1)C(=O)c1cccc(O)c1C3=O (stereo not drawn) [Ditrisarubicin A]	136	148	148	119	91	0.39 (≈ 0.33 µM)	< 0.2	0.78 (≈ 0.659 µM)	50 (≈ 42.3 µM)	50 (≈ 42.3 µM)	< 0.2	50 (≈ 42.3 µM)	12.5 (≈ 10.6 µM)	< 0.2	< 0.2	0.39 (≈ 0.33 µM)	0.39 (≈ 0.33 µM)	50 (≈ 42.3 µM)	50 (≈ 42.3 µM)	0.0005 (≈ 0.000423 µM)	IC50 (L1210 cells [3]): 0.31 µg/mL (≈ 0.262 µM); IC50 (L1210 cells [4]): 0.023 µg/mL (≈ 0.0194 µM); IC50 (L1210 cells [5]): 8.5 µg/mL (≈ 7.18 µM); Solubility in methanol, acetone, ethyl acetate, chloroform, acetonitrile and DMSO (Solubility): soluble; Solubility in water, n-hexane and petroleum ether (Solubility): sparingly soluble
CCC1(O)CC(OC2CC(N(C)C)C(OC3CC4OC5CC(=O)C(C)OC5OC4C(C)O3)C(C)O2)c2c(O)c3c(c(O)c2C1OC1CC(N(C)C)C(OC2CC4OC5CC(=O)C(C)OC5OC4C(C)O2)C(C)O1)C(=O)c1cccc(O)c1C3=O (stereo not drawn) [Ditrisarubicin B]	114	136	148	159	108	0.39 (≈ 0.33 µM)	0.39 (≈ 0.33 µM)	< 0.2	> 50	50 (≈ 42.3 µM)	< 0.2	50 (≈ 42.3 µM)	25 (≈ 21.2 µM)	< 0.2	0.39 (≈ 0.33 µM)	0.39 (≈ 0.33 µM)	0.78 (≈ 0.66 µM)	> 50	50 (≈ 42.3 µM)	0.0011 (≈ 0.000931 µM)	IC50 (L1210 cells [3]): 0.29 µg/mL (≈ 0.245 µM); IC50 (L1210 cells [4]): 0.029 µg/mL (≈ 0.0245 µM); inhibition at 10 µg/mL (L1210 cells [5]; with 10 γ/ml): 23.3%; Solubility in methanol, acetone, ethyl acetate, chloroform, acetonitrile and DMSO (Solubility): soluble; Solubility in water, n-hexane and petroleum ether (Solubility): sparingly soluble
CCC1(O)CC(OC2CC(N(C)C)C(OC3CC4OC5CC(=O)C(C)OC5OC4C(C)O3)C(C)O2)c2c(O)c3c(c(O)c2C1OC1CC(N(C)C)C(OC2CCC(OC4C=CC(=O)C(C)O4)C(C)O2)C(C)O1)C(=O)c1cccc(O)c1C3=O (stereo not drawn) [Ditrisarubicin C]	142	182	142	148	114	0.39 (≈ 0.335 µM)	0.39 (≈ 0.335 µM)	< 0.2	> 50	> 50	< 0.2	50 (≈ 42.9 µM)	25 (≈ 21.5 µM)	< 0.2	< 0.2	< 0.2	0.39 (≈ 0.335 µM)	> 50	50 (≈ 42.9 µM)	0.0007 (≈ 0.000601 µM)	IC50 (L1210 cells [3]): 0.14 µg/mL (≈ 0.12 µM); IC50 (L1210 cells [4]): 0.014 µg/mL (≈ 0.012 µM); IC50 (L1210 cells [5]): 3.2 µg/mL (≈ 2.75 µM); Solubility in methanol, acetone, ethyl acetate, chloroform, acetonitrile and DMSO (Solubility): soluble; Solubility in water, n-hexane and petroleum ether (Solubility): sparingly soluble
